Measurements published in ChEMBL document CHEMBL1201862, “PubChem BioAssay data set” (2004).
The source made the active and inactive calls.

How the values were obtained:
[1] = viability of uninfected HEp-2 cells – cell-based, HTS, cytotoxicity control for RSV inhibitor project, dose response (AID 2410); type: functional; conditions: human respiratory syncytial virus
[2] = target: T1, Calpain-2 catalytic subunit (Sus scrofa, UniProt P43367); experiment: m-calpain protease blockers, concentration series – biochemical, fluorogenic peptide substrate, dose response (AID 1420); type: functional
T1 sequence (P43367 whole entry): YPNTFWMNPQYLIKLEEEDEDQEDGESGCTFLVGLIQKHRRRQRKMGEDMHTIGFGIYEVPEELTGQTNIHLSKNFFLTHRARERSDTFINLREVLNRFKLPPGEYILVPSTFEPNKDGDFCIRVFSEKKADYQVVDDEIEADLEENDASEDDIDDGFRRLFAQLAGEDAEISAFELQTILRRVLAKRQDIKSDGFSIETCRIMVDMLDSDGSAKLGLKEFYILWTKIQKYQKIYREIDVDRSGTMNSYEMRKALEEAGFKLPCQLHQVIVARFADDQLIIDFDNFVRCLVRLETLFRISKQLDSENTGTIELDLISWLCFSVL

CAAX prenyl protease 1 = CAAX prenyl protease 1 (Saccharomyces cerevisiae S288c, UniProt P47154); experiment: yeast CAAX protease Ste24 inhibition – biochemical, S. cerevisiae, plate reader, cherry-pick, dose response (AID 488815)
[3] = restored growth of temperature-sensitive Burl-1 yeast – whole organism, S. cerevisiae, Burl-1 ts mutant, luminescence, counter-screen for SUMOylation pathway inhibitor project, dose response (AID 463199); type: functional
HEK293 [4] = experiment: cells; conditions: Homo sapiens
[5] = NIH3T3 cell viability loss – ATP luminescence, mouse fibroblasts, counter-screen, dose response (AID 2010); type: functional, cell-based;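 note: cells exposed to compound for about 90 hours before reading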
[6] = Trypanosoma cruzi growth suppression in host cells – NIH3T3 host cells, beta-gal luminescence, confirmation (AID 2044); type: functional, cell-based;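 note: intracellular parasites grown in NIH/3T3 mouse fibroblasts as host cells; luminescent beta-galactosidase reporter signal from transgenic T. cruzi replicating inside host cells; inhibitors lower the luminescence signal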
[7] = viability of PTEN-deleted HCT116 cells – cell-based, HCT116 PTEN knockout, dose response (AID 1047); type: functional;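 note: HCT116 colon tumor cells with PTEN knocked out; cells exposed to compound for 60 hours before readout; potency for loss of cell viability measured by luminescence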
[8] = Luminescence Cell-Based Dose Retest to Confirm Inhibitors of Cancer Stem Cells. [Related pubchem assays (depositor defined):AID2717, AID2721]; type: functional; conditions: Homo sapiens
HEK293 [9] = experiment: cells; conditions: Homo sapiens; remark: listed apart in the source
[10] = target: Voltage-dependent T-type calcium channel subunit alpha-1H (Homo sapiens, UniProt O95180); type: functional;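 note: channel activity triggered by adding a high calcium stimulation buffer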
[11] = viability of HCT116 lacking mutant beta-catenin – cell-based, human colon tumor, dose response (AID 1045); type: functional;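 note: HCT116 colon tumor cells with beta catenin knocked out; cells exposed to compound for 60 hours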
[12] = target: Intestinal-type alkaline phosphatase (Homo sapiens, UniProt P09923); experiment: inhibition of human intestinal alkaline phosphatase – biochemical, dose response (AID 488876); type: functional
[13] = target: T2, RNA-binding protein pos-1 (Caenorhabditis elegans, UniProt G5EF15); experiment: disruptors of C. elegans POS-1 RNA interaction – biochemical, fluorescence polarization, dose response (AID 1964);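 note: purified POS-1 fused to maltose binding protein made in E. coli; potency of compounds blocking POS-1 binding to fluorescent RNA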
T2 sequence (G5EF15 whole entry): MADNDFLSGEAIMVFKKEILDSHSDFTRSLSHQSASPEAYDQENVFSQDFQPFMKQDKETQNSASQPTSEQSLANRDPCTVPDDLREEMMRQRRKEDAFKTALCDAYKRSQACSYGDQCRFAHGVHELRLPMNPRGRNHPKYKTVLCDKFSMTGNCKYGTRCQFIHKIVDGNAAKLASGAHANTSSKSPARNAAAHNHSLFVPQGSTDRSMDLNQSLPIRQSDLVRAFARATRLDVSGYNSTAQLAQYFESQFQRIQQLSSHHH

[14] = target: T3, Zinc finger protein mex-5 (Caenorhabditis elegans, UniProt Q9XUB2); experiment: potency of MEX-5 RNA-binding blockers – biochemical, C. elegans, fluorescence polarization, dose response (AID 1960)
T3 sequence (Q9XUB2 whole entry): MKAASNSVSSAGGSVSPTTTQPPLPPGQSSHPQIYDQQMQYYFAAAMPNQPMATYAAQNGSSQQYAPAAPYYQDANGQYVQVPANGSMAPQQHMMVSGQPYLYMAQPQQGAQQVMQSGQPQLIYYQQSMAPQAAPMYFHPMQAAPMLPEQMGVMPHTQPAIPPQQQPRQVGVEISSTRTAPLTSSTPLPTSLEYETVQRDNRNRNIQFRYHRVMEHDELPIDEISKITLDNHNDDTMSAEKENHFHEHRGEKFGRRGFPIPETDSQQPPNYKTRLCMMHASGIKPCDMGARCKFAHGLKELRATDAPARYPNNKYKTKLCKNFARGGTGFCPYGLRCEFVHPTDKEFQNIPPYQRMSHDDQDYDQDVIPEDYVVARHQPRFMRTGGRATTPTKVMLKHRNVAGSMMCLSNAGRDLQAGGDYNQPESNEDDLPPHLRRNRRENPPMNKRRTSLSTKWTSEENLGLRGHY

[15] = target: T4, Alkaline phosphatase, tissue-nonspecific isozyme (Homo sapiens, UniProt P05186); experiment: TNAP enzyme inhibition by screening hits, dose response, selectivity assay for mouse IAP inhibitor project, biochemical, human TNAP, uHTS hits (AID 488906); type: functional
T4 sequence (P05186 whole entry): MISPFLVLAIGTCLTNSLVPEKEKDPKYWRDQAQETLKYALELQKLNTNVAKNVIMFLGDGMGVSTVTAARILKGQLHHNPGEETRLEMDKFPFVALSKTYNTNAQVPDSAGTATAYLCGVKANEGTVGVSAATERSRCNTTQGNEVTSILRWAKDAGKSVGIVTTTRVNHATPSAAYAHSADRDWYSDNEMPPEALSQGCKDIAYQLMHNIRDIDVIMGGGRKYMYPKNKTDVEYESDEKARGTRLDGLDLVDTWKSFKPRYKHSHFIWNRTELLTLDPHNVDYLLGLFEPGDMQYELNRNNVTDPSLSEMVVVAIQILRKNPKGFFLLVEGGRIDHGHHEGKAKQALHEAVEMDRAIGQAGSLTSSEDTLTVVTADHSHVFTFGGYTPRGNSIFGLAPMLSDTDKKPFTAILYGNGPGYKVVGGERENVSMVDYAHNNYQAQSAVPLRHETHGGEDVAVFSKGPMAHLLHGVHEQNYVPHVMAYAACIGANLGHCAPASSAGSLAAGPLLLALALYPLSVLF

[16] = target: Intestinal-type alkaline phosphatase (Mus musculus, UniProt P24822); experiment: PubChem AID 488785; type: functional
Large T antigen = Large T antigen (Simian virus 40, UniProt P03070); type: functional, Betapolyomavirus macacae;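 note: Confirmatory-stage PubChem screen for compounds that inhibit SV40 T antigen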
[17] = MIN6 cell viability loss – mouse insulinoma, cytotoxicity control, dose response (AID 2122); type: functional;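 note: confirmatory high-throughput counterscreen run to flag cytotoxic compounds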
Streptococcus = experiment: GAS UMAA2166 growth inhibition – luminescence, BacTiterGlo, counter-screen for streptokinase expression inhibitor project, dose response (AID 1915); type: functional, organism-based;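 note: potency for reduction of bacterial viability or growth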
[18] = decrease of insulin promoter-GFP reporter – imaging, high-content screening, mouse beta cells (AID 1628); type: functional; conditions: MIN6
[19] = tested on: Streptococcus sp. 'group A'; experiment: Streptococcus pyogenes SK(-)GAS viability under kanamycin – luminescence, BacTiterGlo, confirmation, counter-screen for streptokinase expression inhibitor project, dose response (AID 1900); type: functional, organism-based
[20] = target: Voltage-gated inwardly rectifying potassium channel KCNH2 (Homo sapiens, UniProt Q12809); experiment: concentration-dependent hERG rescue from blockers – cell-based, thallium flux, dose response (AID 2121); type: ADME
HEK293 [21] = experiment: EBV LMP1 TES2 canonical NF-kB signalling blockers – cell-based, HEK293, luciferase, cherry-pick, dose response (AID 588343); type: functional; conditions: Homo sapiens
Streptokinase A = target: T5, Streptokinase A (Streptococcus pyogenes serotype M1, UniProt P10520); experiment: viability-normalized secreted streptokinase activity reduction – plasminogen activation absorbance, OD405, dose response (AID 1914); type: functional, Streptococcus pyogenes M1 GAS;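 note: secreted streptokinase activity via plasminogen activation per viability signal from cell pellet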
T5 sequence (P10520 whole entry): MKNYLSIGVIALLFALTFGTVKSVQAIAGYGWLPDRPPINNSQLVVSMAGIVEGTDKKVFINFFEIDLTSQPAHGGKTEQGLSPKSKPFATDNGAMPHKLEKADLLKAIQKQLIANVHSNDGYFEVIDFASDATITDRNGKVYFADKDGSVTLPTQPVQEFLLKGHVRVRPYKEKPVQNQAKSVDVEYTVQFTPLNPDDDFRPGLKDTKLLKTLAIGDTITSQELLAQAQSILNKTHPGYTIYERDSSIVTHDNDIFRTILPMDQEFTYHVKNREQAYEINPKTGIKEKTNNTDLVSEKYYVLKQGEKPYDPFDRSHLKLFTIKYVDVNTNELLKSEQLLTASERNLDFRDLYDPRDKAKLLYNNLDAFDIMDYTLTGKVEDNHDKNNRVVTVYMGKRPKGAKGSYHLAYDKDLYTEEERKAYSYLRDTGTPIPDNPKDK

Mu-type opioid receptor [22] = target: T6, Mu-type opioid receptor (Homo sapiens, UniProt P35372); experiment: mu opioid receptor blockers – image-based, SAR follow-up (AID 2420); type: functional;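 note: compounds added before stimulation of receptor with agonist DAMGO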
[23] = target: T7, Kappa-type opioid receptor (Homo sapiens, UniProt P41145); experiment: kappa opioid receptor activation potency – imaging, image-based, SAR follow-up (AID 2359); type: functional
Mu-type opioid receptor [24] = target: T6, Mu-type opioid receptor; experiment: mu opioid receptor activators, image-based, SAR follow-up (AID 2352); type: functional
[25] = target: T7, Kappa-type opioid receptor; experiment: kappa opioid receptor blockers, image-based, SAR follow-up (AID 2348); type: functional
[26] = target: T8, Delta-type opioid receptor (Homo sapiens, UniProt P41143); experiment: delta opioid receptor blockers – image-based, SAR follow-up (AID 2357); type: functional
[27] = target: T8, Delta-type opioid receptor; experiment: DOR agonists, SAR follow-up, image-based (AID 2370); type: functional
[28] = target: T7, Kappa-type opioid receptor; experiment: SAR analysis of small molecule agonists of the kappa opioid receptor via a luminescent beta-arrestin assay. [Related pubchem assays (depositor defined):AID1777, AID1786, AID1966, AID2133, AID2136, AID2348, AID2352, AID2357, AID2359, AID2370, AID2420, AID2478, AID2491, AID2492, AID2493, AID2497, AID2498, AID2500, AID449737, AID488822, AID488842]; type: functional
Phosphomannomutase 2 = Phosphomannomutase 2 (Homo sapiens, UniProt O15305); experiment: Counter screen SAR assay for PMM2 inhibitors via a fluorescence intensity assay. [Related pubchem assays (depositor defined):AID1545, AID1574]
[29] = target: T9, Mannose-6-phosphate isomerase (Homo sapiens, UniProt P34949); experiment: phosphomannose isomerase inhibition – biochemical, fluorescence intensity, confirmation (AID 1535)
T9 sequence (P34949 whole entry): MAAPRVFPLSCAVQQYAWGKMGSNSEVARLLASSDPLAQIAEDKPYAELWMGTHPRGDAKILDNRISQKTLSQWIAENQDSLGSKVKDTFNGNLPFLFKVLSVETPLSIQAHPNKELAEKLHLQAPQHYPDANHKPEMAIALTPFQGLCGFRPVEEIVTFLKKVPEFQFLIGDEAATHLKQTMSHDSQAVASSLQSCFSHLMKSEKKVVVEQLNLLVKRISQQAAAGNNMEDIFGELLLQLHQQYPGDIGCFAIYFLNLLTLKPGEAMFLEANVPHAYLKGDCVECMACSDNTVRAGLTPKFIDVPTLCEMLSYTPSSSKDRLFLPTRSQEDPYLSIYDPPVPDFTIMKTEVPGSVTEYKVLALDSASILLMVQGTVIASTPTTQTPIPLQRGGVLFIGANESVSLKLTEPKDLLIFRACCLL

Candida albicans = experiment: antifungal activity against resistant Candida strain – CaCi-8, fluconazole, Alamar Blue, dry powder, dose response (AID 488807); type: functional, organism-based

T7 sequence (P41145 whole entry): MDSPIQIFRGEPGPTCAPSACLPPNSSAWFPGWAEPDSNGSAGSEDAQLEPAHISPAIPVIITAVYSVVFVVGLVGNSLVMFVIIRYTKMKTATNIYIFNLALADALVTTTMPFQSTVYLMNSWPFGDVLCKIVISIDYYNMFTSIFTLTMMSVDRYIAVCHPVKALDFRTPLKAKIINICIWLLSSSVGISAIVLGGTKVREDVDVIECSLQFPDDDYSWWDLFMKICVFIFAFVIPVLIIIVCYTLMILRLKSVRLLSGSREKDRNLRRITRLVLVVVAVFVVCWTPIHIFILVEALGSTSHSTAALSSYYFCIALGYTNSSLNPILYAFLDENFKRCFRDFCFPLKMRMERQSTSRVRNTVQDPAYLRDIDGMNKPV
T8 sequence (P41143 whole entry): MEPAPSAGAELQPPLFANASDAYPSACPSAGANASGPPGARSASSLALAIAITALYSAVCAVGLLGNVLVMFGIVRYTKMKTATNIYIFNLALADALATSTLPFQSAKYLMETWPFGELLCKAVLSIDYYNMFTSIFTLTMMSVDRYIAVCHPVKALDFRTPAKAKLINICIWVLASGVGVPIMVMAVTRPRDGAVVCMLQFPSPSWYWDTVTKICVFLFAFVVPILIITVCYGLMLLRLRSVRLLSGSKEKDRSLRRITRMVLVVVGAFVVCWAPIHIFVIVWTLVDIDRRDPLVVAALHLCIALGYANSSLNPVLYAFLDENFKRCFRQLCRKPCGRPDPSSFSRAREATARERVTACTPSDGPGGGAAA
T6 sequence (P35372 whole entry): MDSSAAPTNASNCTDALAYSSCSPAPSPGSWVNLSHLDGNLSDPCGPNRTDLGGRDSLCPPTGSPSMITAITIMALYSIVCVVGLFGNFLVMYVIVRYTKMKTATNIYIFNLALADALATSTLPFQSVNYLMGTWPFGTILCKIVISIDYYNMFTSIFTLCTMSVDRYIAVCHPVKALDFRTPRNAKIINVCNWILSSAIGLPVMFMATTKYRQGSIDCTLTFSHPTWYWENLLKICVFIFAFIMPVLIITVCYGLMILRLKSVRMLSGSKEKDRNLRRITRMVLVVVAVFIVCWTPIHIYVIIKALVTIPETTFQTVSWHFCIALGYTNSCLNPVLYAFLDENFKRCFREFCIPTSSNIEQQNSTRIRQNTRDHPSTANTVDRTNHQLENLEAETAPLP
Voltage-dependent T-type calcium channel subunit alpha-1H, sequence (O95180 whole entry): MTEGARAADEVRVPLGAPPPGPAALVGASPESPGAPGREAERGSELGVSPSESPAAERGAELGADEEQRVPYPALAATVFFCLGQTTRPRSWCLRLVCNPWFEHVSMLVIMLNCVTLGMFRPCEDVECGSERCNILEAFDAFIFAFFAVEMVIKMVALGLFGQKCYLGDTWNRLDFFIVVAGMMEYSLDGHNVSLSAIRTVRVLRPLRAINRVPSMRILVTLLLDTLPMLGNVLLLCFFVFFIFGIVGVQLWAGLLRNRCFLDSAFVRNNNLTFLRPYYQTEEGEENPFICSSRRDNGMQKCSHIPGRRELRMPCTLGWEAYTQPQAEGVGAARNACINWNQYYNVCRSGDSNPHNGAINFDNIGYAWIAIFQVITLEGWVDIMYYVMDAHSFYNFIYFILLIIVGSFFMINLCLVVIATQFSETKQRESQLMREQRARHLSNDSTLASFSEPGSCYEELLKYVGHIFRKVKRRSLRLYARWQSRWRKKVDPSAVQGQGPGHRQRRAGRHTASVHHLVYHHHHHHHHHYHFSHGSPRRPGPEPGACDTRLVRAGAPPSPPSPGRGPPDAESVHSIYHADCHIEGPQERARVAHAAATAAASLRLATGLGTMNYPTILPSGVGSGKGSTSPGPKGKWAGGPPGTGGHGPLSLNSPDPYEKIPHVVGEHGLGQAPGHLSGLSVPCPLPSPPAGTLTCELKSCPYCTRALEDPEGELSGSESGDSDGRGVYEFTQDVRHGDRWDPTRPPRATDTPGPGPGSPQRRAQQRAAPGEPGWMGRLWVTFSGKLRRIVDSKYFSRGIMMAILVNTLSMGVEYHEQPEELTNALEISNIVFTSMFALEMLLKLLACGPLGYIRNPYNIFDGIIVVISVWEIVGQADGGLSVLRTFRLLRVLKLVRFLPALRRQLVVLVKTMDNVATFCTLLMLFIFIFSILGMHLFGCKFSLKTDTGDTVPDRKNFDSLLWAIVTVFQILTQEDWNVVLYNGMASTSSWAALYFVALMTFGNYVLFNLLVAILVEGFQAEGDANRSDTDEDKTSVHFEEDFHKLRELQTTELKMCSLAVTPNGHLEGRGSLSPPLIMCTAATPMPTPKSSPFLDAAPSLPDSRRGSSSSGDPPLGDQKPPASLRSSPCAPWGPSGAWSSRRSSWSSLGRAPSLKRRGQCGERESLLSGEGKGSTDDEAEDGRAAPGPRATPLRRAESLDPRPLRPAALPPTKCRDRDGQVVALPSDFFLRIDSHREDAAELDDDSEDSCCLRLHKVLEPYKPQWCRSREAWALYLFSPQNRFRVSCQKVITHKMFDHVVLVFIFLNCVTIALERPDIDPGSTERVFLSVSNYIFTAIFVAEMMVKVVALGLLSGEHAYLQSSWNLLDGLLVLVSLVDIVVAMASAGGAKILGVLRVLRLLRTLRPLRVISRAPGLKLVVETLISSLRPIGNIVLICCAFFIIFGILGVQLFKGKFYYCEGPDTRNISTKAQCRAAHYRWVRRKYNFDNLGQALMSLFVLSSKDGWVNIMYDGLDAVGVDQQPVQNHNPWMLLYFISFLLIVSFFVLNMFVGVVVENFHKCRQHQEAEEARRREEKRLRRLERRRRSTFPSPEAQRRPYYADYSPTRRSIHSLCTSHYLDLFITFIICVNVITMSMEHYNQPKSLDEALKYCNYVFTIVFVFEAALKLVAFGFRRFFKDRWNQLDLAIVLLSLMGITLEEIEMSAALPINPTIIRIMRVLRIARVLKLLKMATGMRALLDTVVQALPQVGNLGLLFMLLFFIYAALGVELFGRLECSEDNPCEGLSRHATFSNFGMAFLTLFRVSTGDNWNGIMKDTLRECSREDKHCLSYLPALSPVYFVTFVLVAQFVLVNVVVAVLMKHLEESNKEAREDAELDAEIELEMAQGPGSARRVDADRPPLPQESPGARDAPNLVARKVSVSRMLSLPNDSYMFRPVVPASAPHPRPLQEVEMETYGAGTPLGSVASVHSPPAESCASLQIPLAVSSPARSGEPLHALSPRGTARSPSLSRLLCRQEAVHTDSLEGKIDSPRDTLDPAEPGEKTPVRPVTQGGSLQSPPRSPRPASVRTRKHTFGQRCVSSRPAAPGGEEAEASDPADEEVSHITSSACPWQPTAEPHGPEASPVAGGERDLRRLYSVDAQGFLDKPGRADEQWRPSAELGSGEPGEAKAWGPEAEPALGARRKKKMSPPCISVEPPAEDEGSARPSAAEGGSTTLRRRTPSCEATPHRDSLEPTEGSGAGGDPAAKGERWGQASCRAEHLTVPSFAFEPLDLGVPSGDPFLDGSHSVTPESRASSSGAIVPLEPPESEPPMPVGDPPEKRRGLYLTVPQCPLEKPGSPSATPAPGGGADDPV
Voltage-gated inwardly rectifying potassium channel KCNH2, sequence (Q12809 whole entry): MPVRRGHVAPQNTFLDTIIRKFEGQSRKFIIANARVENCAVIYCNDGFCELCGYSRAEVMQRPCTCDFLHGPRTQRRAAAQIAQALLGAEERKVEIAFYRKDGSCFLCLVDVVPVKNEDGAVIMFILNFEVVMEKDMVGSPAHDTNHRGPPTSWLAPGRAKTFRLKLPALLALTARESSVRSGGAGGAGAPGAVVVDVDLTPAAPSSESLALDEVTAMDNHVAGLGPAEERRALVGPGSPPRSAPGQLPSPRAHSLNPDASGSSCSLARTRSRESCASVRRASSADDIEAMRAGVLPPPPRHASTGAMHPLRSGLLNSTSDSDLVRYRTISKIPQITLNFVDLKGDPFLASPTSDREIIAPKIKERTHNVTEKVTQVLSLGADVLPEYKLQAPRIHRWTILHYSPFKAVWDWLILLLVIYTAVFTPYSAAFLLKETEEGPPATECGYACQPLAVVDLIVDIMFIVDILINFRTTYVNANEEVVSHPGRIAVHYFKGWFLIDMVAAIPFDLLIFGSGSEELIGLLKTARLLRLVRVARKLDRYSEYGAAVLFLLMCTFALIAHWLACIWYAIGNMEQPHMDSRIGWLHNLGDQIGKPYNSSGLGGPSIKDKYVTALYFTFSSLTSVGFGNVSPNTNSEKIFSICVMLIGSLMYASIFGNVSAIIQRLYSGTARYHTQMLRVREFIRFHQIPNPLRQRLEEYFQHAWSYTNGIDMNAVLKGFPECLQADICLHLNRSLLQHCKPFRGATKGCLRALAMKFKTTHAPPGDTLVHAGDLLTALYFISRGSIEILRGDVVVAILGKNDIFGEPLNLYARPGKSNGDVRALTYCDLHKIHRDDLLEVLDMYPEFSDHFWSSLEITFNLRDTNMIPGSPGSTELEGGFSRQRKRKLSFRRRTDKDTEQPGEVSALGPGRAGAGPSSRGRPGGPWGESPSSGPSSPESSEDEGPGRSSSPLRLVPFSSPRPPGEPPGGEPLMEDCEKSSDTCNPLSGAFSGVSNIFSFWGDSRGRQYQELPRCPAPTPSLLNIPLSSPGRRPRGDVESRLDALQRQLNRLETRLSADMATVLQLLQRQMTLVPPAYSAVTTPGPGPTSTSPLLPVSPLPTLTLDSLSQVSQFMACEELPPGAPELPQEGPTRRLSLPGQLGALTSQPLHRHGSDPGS
Phosphomannomutase 2, sequence (O15305 whole entry): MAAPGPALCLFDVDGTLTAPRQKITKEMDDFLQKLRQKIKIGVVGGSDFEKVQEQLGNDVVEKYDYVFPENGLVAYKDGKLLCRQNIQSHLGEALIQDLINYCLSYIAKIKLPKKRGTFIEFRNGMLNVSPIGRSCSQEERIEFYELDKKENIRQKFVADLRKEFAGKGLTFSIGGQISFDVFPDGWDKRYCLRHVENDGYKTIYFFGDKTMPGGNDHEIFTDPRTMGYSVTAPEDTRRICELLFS

## Cc1ccc(Nc2nc(-c3ccc(S(=O)(=O)N4CCOCC4)cc3)cs2)cc1Cl
[1]
  CC50: 4.91 µM (active)
[2]
  IC50: 9.54 µM (active)
CAAX prenyl protease 1
  AC50: > 100 µM (inactive)

## O=C(O)/C=C\C(=O)NC1CCCCC1
[3]
  AC50: 54.1 µM (active)

## CCN(CC)S(=O)(=O)c1ccc2c(c1)C(=NO)c1cc(S(=O)(=O)N(CC)CC)ccc1-2
HEK293 [4]
  EC50: > 59.6 µM (inactive)
[5]
  EC50: < 6 µM (inconclusive)
[6]
  EC50: 0.84 µM (active)
[7]
  EC50: 6.41 µM (active)
[8]
  AC50: 0.742 µM (active)
[1]
  CC50: 9.81 µM (active)
HEK293 [9]
  EC50: > 59.6 µM (inactive)
[10]
  EC50: 1.6 µM (active)
cells
  IC50: 5.19 µM (active)
[11]
  EC50: 7.08 µM (active)

## O=C1CNC(=S)N1CCc1ccc(O)c(O)c1
[12]
  IC50: > 100 µM (inactive)
[13]
  EC50: > 300 µM (not active)
[14]
  EC50: 26.8 µM (active)
[15]
  IC50: > 100 µM (inactive)
[16]
  IC50: 6 µM (active)
Large T antigen
  IC50: 39.6 µM (active)

## Oc1c(N=NC(S)=Nc2ccccc2F)c2ccccc2n1Cc1ccccc1
[17]
  IC50: 10.1 µM (inactive)
Streptococcus
  EC50: 6.93 µM (active)
[18]
  IC50: 6.95 µM (active)
[19]
  EC50: 0.562 µM (active)
[20]
  EC50: 0.89 µM (active)
HEK293 [21]
  AC50: 3.07 µM (active)
Streptokinase A
  EC50: > 150 µM (not active)

## O=C(c1ccccn1)N(Cc1cc2ccccc2[nH]c1=O)C1CCCCC1
Mu-type opioid receptor [22]
  IC50: > 32 µM (inactive)
[23]
  EC50: 18.1 µM (inactive)
Mu-type opioid receptor [24]
  EC50: > 32 µM (inactive)
[25]
  IC50: > 32 µM (inactive)
[26]
  IC50: > 32 µM (inactive)
[27]
  EC50: > 32 µM (inactive)
[28]
  EC50: > 10 µM (inactive)

## COc1ccc(C)c(/N=c2\ssnc2Cl)c1
Phosphomannomutase 2
  IC50: > 100 µM (inactive)
[29]
  IC50: 49.9 µM (active)

## COC(=O)Cn1nc(-c2ccc(C)cc2)c2ccccc21
Candida albicans
  AC50: 1.45 µM (active)
